Assays:
Hsp90α = target: T1, Hsp90α (Homo sapiens, UniProt P07900); assay: Heat shock protein (Hsp) 90α activity assay (fluorescence polarization, FITC-labeled geldanamycin); assay type: binding; settings: read-out: HSP90 IC50
T1 construct: purchased BPS Bioscience

[1] = test system: laser-induced choroidal neovascularization (CNV); assay: Laser-induced choroidal neovascularization (CNV) model, fundus fluorescein angiography; assay type: in vivo, C57BL/6 mice; settings: day 7, vs vehicle; G570 20 mg/kg/day i.p. days 0, 1, 3, 5; Eylea 40 μg/1 μL per eye i.v.t. day 0
[2] = test system: HeLa nuclear extract HDAC; assay: HeLa nuclear extract HDAC activity assay; assay type: biochemical; settings: HeLa nuclear extract as HDAC source

Row | IC50 (Hsp90α) [nM] | Compound | also measured
1 | > 1000 | O=C(CCCCCCC(=O)Nc1ccccc1)NO [SAHA, reference compound] | –
2 | – | aflibercept [Eylea] | laser-induced leakage area of fluorescein (FFA) [1]: significantly decreased
3 | 52.1 ± 2.9 | CC(C)c1cc(C(=O)N2CCc3cc(NC(=O)CCCCCCCC(=O)NO)ccc32)c(O)cc1O [Compound 6, N1-(1-(2,4-dihydroxy-5-isopropylbenzoyl)indolin-5-yl)-N9-hydroxynonanediamide] | –
4 | 40.2 ± 5.2 | CC(C)c1cc(C(=O)N2CCc3cc(NC(=O)CCCCCC(=O)NO)ccc32)c(O)cc1O [Compound 4, N1-(1-(2,4-dihydroxy-5-isopropylbenzoyl)indolin-5-yl)-N7-hydroxyheptanediamide] | –
5 | 49.3 ± 1.6 | CC(C)c1cc(C(=O)N2CCc3cc(NC(=O)CCC(=O)NO)ccc32)c(O)cc1O [Compound 1, N1-(1-(2,4-dihydroxy-5-isopropylbenzoyl)indolin-5-yl)-N4-hydroxysuccinamide] | –
6 | 58.6 ± 2.2 | CC(C)c1cc(C(=O)N2CCc3cc(NC(=O)CCCCCCCCC(=O)NO)ccc32)c(O)cc1O [Compound 7, N1-(1-(2,4-dihydroxy-5-isopropylbenzoyl)indolin-5-yl)-N10-hydroxydecanediamide] | –
7 | – | COc1c(C)cnc(Cn2cnc3c(Cl)nc(N)nc32)c1C [BIIB021] | IC50 [2]: > 1000 nM
8 | 55.9 ± 3.2 | CC(C)c1cc(C(=O)N2CCc3cc(NC(=O)CCCC(=O)NO)ccc32)c(O)cc1O [Compound 2, N1-(1-(2,4-dihydroxy-5-isopropylbenzoyl)indolin-5-yl)-N5-hydroxyglutaramide] | –
